Test results from the supplement of paper PMC10307832.

Tests used:
Test in all cases: relative viability (nuclei count vs DMSO), 5 days (fraction); higher = more cells survive
[1] = system: ABC-1
Procedure, shortened: (§1)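 Cells from lung cancer lines were seeded into 1536-well plates and, one day later, dosed by pin tool. Treatments were either a single drug or a fixed dose of an anchor drug with five library-drug doses (not always all listed) in √10 steps. After 5 days, nuclei were stained in a one-step fixation (final 0.05% Triton X-100, 1% formaldehyde, 1 ug/ml Hoechst) and counted on 4× images, and relative viability is the treated-to-vehicle nuclei ratio, as the median of duplicate plates.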

[2] = system: BEN
Procedure, shortened: as §1

[3] = system: EPLC-272H
Procedure, shortened: as §1

[4] = system: HCC-827
Procedure, shortened: as §1

[5] = system: HOP-62
Procedure, shortened: as §1

[6] = system: LU99A
Procedure, shortened: as §1

[7] = system: NCI-H1355
Procedure, shortened: as §1

[8] = system: NCI-H1666
Procedure, shortened: as §1

[9] = system: NCI-H1792
Procedure, shortened: as §1

[10] = system: NCI-H1975
Procedure, shortened: as §1

[11] = system: NCI-H2170
Procedure, shortened: as §1

[12] = system: NCI-H23
Procedure, shortened: as §1

[13] = system: NCI-H2405
Procedure, shortened: as §1

[14] = system: NCI-H3122
Procedure, shortened: as §1

[15] = system: NCI-H322M
Procedure, shortened: as §1

[16] = system: NCI-H358
Procedure, shortened: as §1

[17] = system: NCI-H520
Procedure, shortened: as §1

[18] = system: NCI-H596
Procedure, shortened: as §1

[19] = system: NCI-H647
Procedure, shortened: as §1

[20] = system: NCI-H727
Procedure, shortened: as §1

[21] = system: NCI-H838
Procedure, shortened: as §1

[22] = system: PC-14
Procedure, shortened: as §1

[23] = system: UMC-11
Procedure, shortened: as §1

O=C(O)CCCCC(CCSCc1ccccc1)SCc1ccccc1 (stereo not given) [CPI-613] + C[C@@H](Oc1cc(-c2cnn(C3CCNCC3)c2)cnc1N)c1c(Cl)ccc(F)c1Cl [Crizotinib] (partner 1 µM)
relative viability ([1]; first compound 5 µM): 0.984 | relative viability ([1]; first compound 15.81 µM): 0.855 | relative viability ([1]; first compound 50 µM): 0.875 | relative viability ([1]; first compound 158.11 µM): 0.367 | relative viability ([1]; first compound 500 µM): 0.213 | relative viability ([2]; first compound 5 µM): 0.802 | relative viability ([2]; first compound 15.81 µM): 0.739 | relative viability ([2]; first compound 50 µM): 0.807 | relative viability ([2]; first compound 158.11 µM): 0.743 | relative viability ([2]; first compound 500 µM): 0.769 | relative viability ([3]; first compound 5 µM): 0.9 | relative viability ([3]; first compound 15.81 µM): 0.925 | relative viability ([3]; first compound 50 µM): 1.03 | relative viability ([3]; first compound 158.11 µM): 0.855 | relative viability ([3]; first compound 500 µM): 1.07 | relative viability ([4]; first compound 5 µM): 0.878 | relative viability ([4]; first compound 15.81 µM): 0.906 | relative viability ([4]; first compound 50 µM): 0.843 | relative viability ([4]; first compound 158.11 µM): 0.412 | relative viability ([4]; first compound 500 µM): 0.225 | relative viability ([5]; first compound 5 µM): 0.862 | relative viability ([5]; first compound 15.81 µM): 0.85 | relative viability ([5]; first compound 50 µM): 0.851 | relative viability ([5]; first compound 158.11 µM): 0.172 | relative viability ([5]; first compound 500 µM): 0.387 | relative viability ([6]; first compound 5 µM): 0.618 | relative viability ([6]; first compound 15.81 µM): 0.546 | relative viability ([6]; first compound 50 µM): 0.589 | relative viability ([6]; first compound 158.11 µM): 0.168 | relative viability ([6]; first compound 500 µM): 0.0638 | relative viability ([7]; first compound 5 µM): 1.09 | relative viability ([7]; first compound 15.81 µM): 1.01 | relative viability ([7]; first compound 50 µM): 1.07 | relative viability ([7]; first compound 158.11 µM): 0.152 | relative viability ([7]; first compound 500 µM): 0.136 | relative viability ([8]; first compound 5 µM): 0.863 | relative viability ([8]; first compound 15.81 µM): 0.995 | relative viability ([8]; first compound 50 µM): 1.03 | relative viability ([8]; first compound 158.11 µM): 0.236 | relative viability ([8]; first compound 500 µM): 0.131 | relative viability ([9]; first compound 5 µM): 0.937 | relative viability ([9]; first compound 15.81 µM): 0.909 | relative viability ([9]; first compound 50 µM): 0.914 | relative viability ([9]; first compound 158.11 µM): 0.91 | relative viability ([9]; first compound 500 µM): 0.753 | relative viability ([10]; first compound 5 µM): 0.931 | relative viability ([10]; first compound 15.81 µM): 0.982 | relative viability ([10]; first compound 50 µM): 0.945 | relative viability ([10]; first compound 158.11 µM): 0.499 | relative viability ([10]; first compound 500 µM): 0.0749 | relative viability ([11]; first compound 5 µM): 1.15 | relative viability ([11]; first compound 15.81 µM): 1.18 | relative viability ([11]; first compound 50 µM): 1.13 | relative viability ([11]; first compound 158.11 µM): 0.746 | relative viability ([11]; first compound 500 µM): 0.335 | relative viability ([12]; first compound 5 µM): 0.542 | relative viability ([12]; first compound 15.81 µM): 0.563 | relative viability ([12]; first compound 50 µM): 0.488 | relative viability ([12]; first compound 158.11 µM): 0.189 | relative viability ([12]; first compound 500 µM): 0.0618 | relative viability ([13]; first compound 5 µM): 0.855 | relative viability ([13]; first compound 15.81 µM): 0.842 | relative viability ([13]; first compound 50 µM): 0.825 | relative viability ([13]; first compound 158.11 µM): 0.828 | relative viability ([13]; first compound 500 µM): 0.829 | relative viability ([14]; first compound 5 µM): 0.234 | relative viability ([14]; first compound 15.81 µM): 0.261 | relative viability ([14]; first compound 50 µM): 0.281 | relative viability ([14]; first compound 158.11 µM): 0.247 | relative viability ([14]; first compound 500 µM): 0.0651 | relative viability ([15]; first compound 5 µM): 0.917 | relative viability ([15]; first compound 15.81 µM): 0.917 | relative viability ([15]; first compound 50 µM): 1 | relative viability ([15]; first compound 158.11 µM): 0.996 | relative viability ([15]; first compound 500 µM): 1.01 | relative viability ([16]; first compound 5 µM): 0.659 | relative viability ([16]; first compound 15.81 µM): 0.606 | relative viability ([16]; first compound 50 µM): 0.501 | relative viability ([16]; first compound 158.11 µM): 0.104 | relative viability ([16]; first compound 500 µM): 0.0191 | relative viability ([17]; first compound 5 µM): 0.721 | relative viability ([17]; first compound 15.81 µM): 0.716 | relative viability ([17]; first compound 50 µM): 0.626 | relative viability ([17]; first compound 158.11 µM): 0.233 | relative viability ([17]; first compound 500 µM): 0.106 | relative viability ([18]; first compound 5 µM): 0.959 | relative viability ([18]; first compound 15.81 µM): 0.966 | relative viability ([18]; first compound 50 µM): 1.1 | relative viability ([18]; first compound 158.11 µM): 0.589 | relative viability ([18]; first compound 500 µM): 0.0472 | relative viability ([19]; first compound 5 µM): 0.853 | relative viability ([19]; first compound 15.81 µM): 1.01 | relative viability ([19]; first compound 50 µM): 0.769 | relative viability ([19]; first compound 158.11 µM): 0.0681 | relative viability ([19]; first compound 500 µM): 0.0175 | relative viability ([20]; first compound 5 µM): 0.875 | relative viability ([20]; first compound 15.81 µM): 0.743 | relative viability ([20]; first compound 50 µM): 0.797 | relative viability ([20]; first compound 158.11 µM): 0.244 | relative viability ([20]; first compound 500 µM): 0.0831 | relative viability ([21]; first compound 5 µM): 0.882 | relative viability ([21]; first compound 15.81 µM): 0.833 | relative viability ([21]; first compound 50 µM): 0.803 | relative viability ([21]; first compound 158.11 µM): 0.598 | relative viability ([21]; first compound 500 µM): 0.0806 | relative viability ([22]; first compound 5 µM): 0.871 | relative viability ([22]; first compound 15.81 µM): 0.939 | relative viability ([22]; first compound 50 µM): 0.799 | relative viability ([22]; first compound 158.11 µM): 0.848 | relative viability ([22]; first compound 500 µM): 0.33 | relative viability ([23]; first compound 5 µM): 0.578 | relative viability ([23]; first compound 15.81 µM): 0.668 | relative viability ([23]; first compound 50 µM): 0.696 | relative viability ([23]; first compound 158.11 µM): 0.298 | relative viability ([23]; first compound 500 µM): 0.0636
